Assay results: ChEMBL document CHEMBL3232809, “Synthesis, antibiotic activity and structure-activity relationship study of some 3-enaminetetramic acids” (2014)
Converted amounts (≈) assume the structure as drawn.

Test system: Pseudomonas aeruginosa
Experiment: Antimicrobial activity against Pseudomonas aeruginosa ATCC 27853
Format: functional

Row | SMILES | MIC [µg/mL]
1 | COC(=O)[C@]12CO[C@H](C(C)(C)C)N1C(=O)/C(=C(/CCCOc1ccccc1)NCCN1CCCCC1)C2=O | > 32
2 | C/C(NC12CC3CC(CC(C3)C1)C2)=C1\C(=O)N2[C@H](C(C)(C)C)OC[C@@]2(C)C1=O (mixture of isomers) | > 32
3 | C/C(NCCOc1ccccc1)=C1\C(=O)N2[C@H](C(C)(C)C)OC[C@@]2(C)C1=O (racemic) | > 32
4 | C/C(Nc1ccccc1)=C1\C(=O)N2[C@H](C(C)(C)C)OC[C@@]2(C)C1=O (racemic) | > 32

Test system: Escherichia coli
Experiment: Antimicrobial activity against Escherichia coli ATCC 25922
Format: functional

Row | SMILES | MIC [µg/mL]
5 | COC(=O)[C@]12CO[C@H](C(C)(C)C)N1C(=O)/C(=C(/CCCOc1ccccc1)NCCN1CCCCC1)C2=O | > 32
6 | C/C(NC12CC3CC(CC(C3)C1)C2)=C1\C(=O)N2[C@H](C(C)(C)C)OC[C@@]2(C)C1=O (mixture of isomers) | > 32
7 | C/C(NCCOc1ccccc1)=C1\C(=O)N2[C@H](C(C)(C)C)OC[C@@]2(C)C1=O (racemic) | > 32
8 | C/C(Nc1ccccc1)=C1\C(=O)N2[C@H](C(C)(C)C)OC[C@@]2(C)C1=O (racemic) | > 32

Test system: Escherichia coli
Experiment: Antimicrobial activity against Escherichia coli 49
Format: functional

Row | SMILES | MIC [µg/mL]
9 | COC(=O)[C@]12CO[C@H](C(C)(C)C)N1C(=O)/C(=C(/CCCOc1ccccc1)NCCN1CCCCC1)C2=O | > 32
10 | C/C(NC12CC3CC(CC(C3)C1)C2)=C1\C(=O)N2[C@H](C(C)(C)C)OC[C@@]2(C)C1=O (mixture of isomers) | > 32
11 | C/C(NCCOc1ccccc1)=C1\C(=O)N2[C@H](C(C)(C)C)OC[C@@]2(C)C1=O (racemic) | > 32
12 | C/C(Nc1ccccc1)=C1\C(=O)N2[C@H](C(C)(C)C)OC[C@@]2(C)C1=O (racemic) | > 32

Test system: Staphylococcus aureus
Experiment: Antimicrobial activity against vancomycin-susceptible Staphylococcus aureus ATCC 25923
Format: functional

Row | SMILES | MIC [µg/mL]
13 | COC(=O)[C@]12CO[C@H](C(C)(C)C)N1C(=O)/C(=C(/CCCOc1ccccc1)NCCN1CCCCC1)C2=O | > 32
14 | C/C(NC12CC3CC(CC(C3)C1)C2)=C1\C(=O)N2[C@H](C(C)(C)C)OC[C@@]2(C)C1=O (mixture of isomers) | > 64
15 | C/C(NCCOc1ccccc1)=C1\C(=O)N2[C@H](C(C)(C)C)OC[C@@]2(C)C1=O (racemic) | 4 (≈ 10.7 µM)
16 | C/C(Nc1ccccc1)=C1\C(=O)N2[C@H](C(C)(C)C)OC[C@@]2(C)C1=O (racemic) | 64 (≈ 195 µM)

Test system: Streptococcus pneumoniae
Experiment: Antimicrobial activity against penicillin- and erythromycin-resistant Streptococcus pneumoniae in presence of 2.5% horse blood
Format: functional

Row | SMILES | MIC [µg/mL]
17 | COC(=O)[C@]12CO[C@H](C(C)(C)C)N1C(=O)/C(=C(/CCCOc1ccccc1)NCCN1CCCCC1)C2=O | > 32
18 | C/C(NC12CC3CC(CC(C3)C1)C2)=C1\C(=O)N2[C@H](C(C)(C)C)OC[C@@]2(C)C1=O (mixture of isomers) | > 64
19 | C/C(NCCOc1ccccc1)=C1\C(=O)N2[C@H](C(C)(C)C)OC[C@@]2(C)C1=O (racemic) | 2
20 | C/C(Nc1ccccc1)=C1\C(=O)N2[C@H](C(C)(C)C)OC[C@@]2(C)C1=O (racemic) | 8

Test system: Staphylococcus aureus
Experiment: Antimicrobial activity against Staphylococcus aureus Oxford
Format: functional

Row | SMILES | MIC [µg/mL]
21 | COC(=O)[C@]12CO[C@H](C(C)(C)C)N1C(=O)/C(=C(/CCCOc1ccccc1)NCCN1CCCCC1)C2=O | > 32
22 | C/C(NC12CC3CC(CC(C3)C1)C2)=C1\C(=O)N2[C@H](C(C)(C)C)OC[C@@]2(C)C1=O (mixture of isomers) | > 64
23 | C/C(NCCOc1ccccc1)=C1\C(=O)N2[C@H](C(C)(C)C)OC[C@@]2(C)C1=O (racemic) | 8 (≈ 21.5 µM)
24 | C/C(Nc1ccccc1)=C1\C(=O)N2[C@H](C(C)(C)C)OC[C@@]2(C)C1=O (racemic) | 64 (≈ 195 µM)

Test system: Haemophilus influenzae
Experiment: Antimicrobial activity against LS2 Efflux knock-out Haemophilus influenzae
Format: functional

Row | SMILES | MIC [µg/mL]
25 | COC(=O)[C@]12CO[C@H](C(C)(C)C)N1C(=O)/C(=C(/CCCOc1ccccc1)NCCN1CCCCC1)C2=O | > 32
26 | C/C(NC12CC3CC(CC(C3)C1)C2)=C1\C(=O)N2[C@H](C(C)(C)C)OC[C@@]2(C)C1=O (mixture of isomers) | 16
27 | C/C(NCCOc1ccccc1)=C1\C(=O)N2[C@H](C(C)(C)C)OC[C@@]2(C)C1=O (racemic) | < 0.06
28 | C/C(Nc1ccccc1)=C1\C(=O)N2[C@H](C(C)(C)C)OC[C@@]2(C)C1=O (racemic) | 8 (≈ 24.4 µM)

Test system: Streptococcus pneumoniae
Experiment: Antimicrobial activity against penicillin- and erythromycin-resistant Streptococcus pneumoniae
Format: functional

Row | SMILES | MIC [µg/mL]
29 | COC(=O)[C@]12CO[C@H](C(C)(C)C)N1C(=O)/C(=C(/CCCOc1ccccc1)NCCN1CCCCC1)C2=O | > 32
30 | C/C(NC12CC3CC(CC(C3)C1)C2)=C1\C(=O)N2[C@H](C(C)(C)C)OC[C@@]2(C)C1=O (mixture of isomers) | > 64
31 | C/C(NCCOc1ccccc1)=C1\C(=O)N2[C@H](C(C)(C)C)OC[C@@]2(C)C1=O (racemic) | 1 (≈ 2.68 µM)
32 | C/C(Nc1ccccc1)=C1\C(=O)N2[C@H](C(C)(C)C)OC[C@@]2(C)C1=O (racemic) | 8 (≈ 24.4 µM)

Test system: Enterococcus faecium
Experiment: Antimicrobial activity against vancomycin-resistant Enterococcus faecium
Format: functional

Row | SMILES | MIC [µg/mL]
33 | COC(=O)[C@]12CO[C@H](C(C)(C)C)N1C(=O)/C(=C(/CCCOc1ccccc1)NCCN1CCCCC1)C2=O | > 32
34 | C/C(NC12CC3CC(CC(C3)C1)C2)=C1\C(=O)N2[C@H](C(C)(C)C)OC[C@@]2(C)C1=O (mixture of isomers) | > 64
35 | C/C(NCCOc1ccccc1)=C1\C(=O)N2[C@H](C(C)(C)C)OC[C@@]2(C)C1=O (racemic) | 1 (≈ 2.68 µM)
36 | C/C(Nc1ccccc1)=C1\C(=O)N2[C@H](C(C)(C)C)OC[C@@]2(C)C1=O (racemic) | 32 (≈ 97.4 µM)

Test system: Staphylococcus aureus
Experiment: Antimicrobial activity against methicillin-sensitive Staphylococcus aureus ATCC 13709
Format: functional

Row | SMILES | MIC [µg/mL]
37 | COC(=O)[C@]12CO[C@H](C(C)(C)C)N1C(=O)/C(=C(/CCCOc1ccccc1)NCCN1CCCCC1)C2=O | > 32
38 | C/C(NC12CC3CC(CC(C3)C1)C2)=C1\C(=O)N2[C@H](C(C)(C)C)OC[C@@]2(C)C1=O (mixture of isomers) | > 64
39 | C/C(NCCOc1ccccc1)=C1\C(=O)N2[C@H](C(C)(C)C)OC[C@@]2(C)C1=O (racemic) | 8 (≈ 21.5 µM)
40 | C/C(Nc1ccccc1)=C1\C(=O)N2[C@H](C(C)(C)C)OC[C@@]2(C)C1=O (racemic) | 64 (≈ 195 µM)

Test system: Enterococcus faecalis
Experiment: Antimicrobial activity against vancomycin-susceptible Enterococcus faecalis ATCC 29212
Format: functional

Row | SMILES | MIC [µg/mL]
41 | COC(=O)[C@]12CO[C@H](C(C)(C)C)N1C(=O)/C(=C(/CCCOc1ccccc1)NCCN1CCCCC1)C2=O | > 32
42 | C/C(NC12CC3CC(CC(C3)C1)C2)=C1\C(=O)N2[C@H](C(C)(C)C)OC[C@@]2(C)C1=O (mixture of isomers) | > 64
43 | C/C(NCCOc1ccccc1)=C1\C(=O)N2[C@H](C(C)(C)C)OC[C@@]2(C)C1=O (racemic) | 4 (≈ 10.7 µM)
44 | C/C(Nc1ccccc1)=C1\C(=O)N2[C@H](C(C)(C)C)OC[C@@]2(C)C1=O (racemic) | 64 (≈ 195 µM)

Test system: Staphylococcus aureus
Experiment: Antimicrobial activity against methicillin-resistant Staphylococcus aureus
Format: functional

Row | SMILES | MIC [µg/mL]
45 | COC(=O)[C@]12CO[C@H](C(C)(C)C)N1C(=O)/C(=C(/CCCOc1ccccc1)NCCN1CCCCC1)C2=O | > 32
46 | C/C(NC12CC3CC(CC(C3)C1)C2)=C1\C(=O)N2[C@H](C(C)(C)C)OC[C@@]2(C)C1=O (mixture of isomers) | > 64
47 | C/C(NCCOc1ccccc1)=C1\C(=O)N2[C@H](C(C)(C)C)OC[C@@]2(C)C1=O (racemic) | 8 (≈ 21.5 µM)
48 | C/C(Nc1ccccc1)=C1\C(=O)N2[C@H](C(C)(C)C)OC[C@@]2(C)C1=O (racemic) | 64 (≈ 195 µM)

Test system: Streptococcus pneumoniae
Experiment: Antimicrobial activity against erythromycin-susceptible Streptococcus pneumoniae ATCC 49619
Format: functional

Row | SMILES | MIC [µg/mL]
49 | COC(=O)[C@]12CO[C@H](C(C)(C)C)N1C(=O)/C(=C(/CCCOc1ccccc1)NCCN1CCCCC1)C2=O | > 32
50 | C/C(NC12CC3CC(CC(C3)C1)C2)=C1\C(=O)N2[C@H](C(C)(C)C)OC[C@@]2(C)C1=O (mixture of isomers) | > 64
51 | C/C(NCCOc1ccccc1)=C1\C(=O)N2[C@H](C(C)(C)C)OC[C@@]2(C)C1=O (racemic) | 1 (≈ 2.68 µM)
52 | C/C(Nc1ccccc1)=C1\C(=O)N2[C@H](C(C)(C)C)OC[C@@]2(C)C1=O (racemic) | 8 (≈ 24.4 µM)

Test system: Escherichia coli
Experiment: Antimicrobial activity against Escherichia coli 50
Format: functional

Row | SMILES | MIC [µg/mL]
53 | COC(=O)[C@]12CO[C@H](C(C)(C)C)N1C(=O)/C(=C(/CCCOc1ccccc1)NCCN1CCCCC1)C2=O | > 32
54 | C/C(NC12CC3CC(CC(C3)C1)C2)=C1\C(=O)N2[C@H](C(C)(C)C)OC[C@@]2(C)C1=O (mixture of isomers) | > 32
55 | C/C(NCCOc1ccccc1)=C1\C(=O)N2[C@H](C(C)(C)C)OC[C@@]2(C)C1=O (racemic) | > 32
56 | C/C(Nc1ccccc1)=C1\C(=O)N2[C@H](C(C)(C)C)OC[C@@]2(C)C1=O (racemic) | > 32

Test system: Haemophilus influenzae
Experiment: Antimicrobial activity against Haemophilus influenzae ATCC 31517 MMSA
Format: functional

Row | SMILES | MIC [µg/mL]
57 | COC(=O)[C@]12CO[C@H](C(C)(C)C)N1C(=O)/C(=C(/CCCOc1ccccc1)NCCN1CCCCC1)C2=O | > 32
58 | C/C(NC12CC3CC(CC(C3)C1)C2)=C1\C(=O)N2[C@H](C(C)(C)C)OC[C@@]2(C)C1=O (mixture of isomers) | > 64
59 | C/C(NCCOc1ccccc1)=C1\C(=O)N2[C@H](C(C)(C)C)OC[C@@]2(C)C1=O (racemic) | 4 (≈ 10.7 µM)
60 | C/C(Nc1ccccc1)=C1\C(=O)N2[C@H](C(C)(C)C)OC[C@@]2(C)C1=O (racemic) | > 64
